Assay: xn = mol fraction of the nth substance listed

NC(=O)C[C@H](N)C(=O)O + CCCC[N+](CCCC)(CCCC)Cc1ccccc1.[Cl-] + O
electrical conductivity [S/m], 100 kPa, frequency 0.001 MHz
Settings	293.15 K	298.15 K	303.15 K	308.15 K	313.15 K
x1 = 0.0001802, x2 = 1.802e-05	0.0457	0.0482	0.0503	0.052	0.0553
x1 = 0.0001803, x2 = 5.405e-05	0.0516	0.0545	0.0572	0.0607	0.0639
x1 = 0.0001804, x2 = 9.008e-05	0.0589	0.066	0.0748	0.0813	0.0899
x1 = 0.0004504, x2 = 1.801e-05	0.0517	0.0574	0.059	0.0615	0.0657
x1 = 0.0004507, x2 = 5.403e-05	0.0603	0.0634	0.0663	0.0714	0.0753
x1 = 0.000451, x2 = 9.005e-05	0.0728	0.0771	0.0832	0.0889	0.0937
x1 = 0.0007205, x2 = 1.801e-05	0.057	0.0653	0.0683	0.0709	0.0773
x1 = 0.0007209, x2 = 5.402e-05	0.0678	0.072	0.0765	0.0809	0.0884
x1 = 0.0007213, x2 = 9.003e-05	0.0805	0.087	0.0917	0.0967	0.104
x1 = 0.0009904, x2 = 1.8e-05	0.0635	0.0749	0.0776	0.0796	0.0859
x1 = 0.000991, x2 = 5.4e-05	0.0716	0.0812	0.0854	0.0913	0.0954
x1 = 0.0009916, x2 = 9e-05	0.0886	0.0965	0.102	0.104	0.111
x1 = 0.00126, x2 = 1.8e-05	0.0698	0.0826	0.0859	0.0888	0.0951
x1 = 0.001261, x2 = 5.399e-05	0.0783	0.0903	0.0935	0.0999	0.113
x1 = 0.001262, x2 = 8.998e-05	0.102	0.105	0.108	0.112	0.127
x1 = 0.00153, x2 = 1.799e-05	0.086	0.092	0.0943	0.0983	0.11
x1 = 0.001531, x2 = 5.397e-05	0.0934	0.0997	0.105	0.108	0.115
x1 = 0.001532, x2 = 8.995e-05	0.107	0.111	0.116	0.121	0.138

viscosity [mPa·s], 100 kPa
Settings	293.15 K	298.15 K	303.15 K	308.15 K	313.15 K
x1 = 0.0001802, x2 = 1.802e-05	0.959	0.919	0.882	–	–
x1 = 0.0001803, x2 = 5.405e-05	0.967	0.926	0.885	–	–
x1 = 0.0001804, x2 = 9.008e-05	0.978	0.935	0.898	–	–
x1 = 0.0004504, x2 = 1.801e-05	0.965	0.925	0.888	0.851	0.798
x1 = 0.0004507, x2 = 5.403e-05	0.974	0.932	0.892	0.858	0.802
x1 = 0.000451, x2 = 9.005e-05	0.985	0.941	0.904	0.862	0.81
x1 = 0.0007205, x2 = 1.801e-05	0.97	0.931	0.894	0.857	0.804
x1 = 0.0007209, x2 = 5.402e-05	0.98	0.938	0.898	0.864	0.809
x1 = 0.0007213, x2 = 9.003e-05	0.992	0.947	0.91	0.868	0.817
x1 = 0.0009904, x2 = 1.8e-05	0.975	0.936	0.899	0.863	0.81
x1 = 0.000991, x2 = 5.4e-05	0.985	0.943	0.904	0.87	0.815
x1 = 0.0009916, x2 = 9e-05	0.997	0.952	0.916	0.874	0.825
x1 = 0.00126, x2 = 1.8e-05	0.98	0.941	0.905	0.869	0.817
x1 = 0.001261, x2 = 5.399e-05	0.99	0.948	0.909	0.877	0.822
x1 = 0.001262, x2 = 8.998e-05	1.003	0.958	0.922	0.88	0.831
x1 = 0.00153, x2 = 1.799e-05	0.984	0.946	0.91	0.875	0.823
x1 = 0.001531, x2 = 5.397e-05	0.995	0.954	0.915	0.883	0.829
x1 = 0.001532, x2 = 8.995e-05	1.008	0.964	0.929	0.887	0.839

O=S(=O)([N-]S(=O)(=O)C(F)(F)F)C(F)(F)F.[Li+] + CC#N
100 kPa
Settings	electrical conductivity [S/m]	viscosity [mPa·s]
293 K, x1 = 0.25	–	17.9
303.15 K, x1 = 0.02067	2.79	–
303.15 K, x1 = 0.03069	3.23	–
308.15 K, x1 = 0.03069	3.34	–
308.15 K, x1 = 0.04052	3.85	–
308.15 K, x1 = 0.05013	4.25	–
308.15 K, x1 = 0.07787	4.14	–
313.15 K, x1 = 0.02067	3.03	–
313.15 K, x1 = 0.07787	4.35	–
318.15 K, x1 = 0.04052	4.16	–
318.15 K, x1 = 0.05013	4.64	–
323.15 K, x1 = 0.05957	4.97	–
328.15 K, x1 = 0.05013	4.99	–
328.15 K, x1 = 0.05957	5.14	–
333.15 K, x1 = 0.05957	5.28	–

C=C[n+]1ccn(CCCC)c1.NCCCC[C@H](N)C(=O)[O-] + O
101.3 kPa
Settings	electrical conductivity [S/m]	viscosity [mPa·s]
293.15 K, x1 = 0.3	–	8.51
293.15 K, x1 = 0.5	–	90.4
293.15 K, x1 = 0.9	–	1909
293.15 K, x1 = 1	–	10700
303.15 K, x1 = 0.5	2.81	69.3
303.15 K, x1 = 0.9	1.13	1664
303.15 K, x1 = 1	0.133	6900
308.15 K, x1 = 0.1	2.16	–
313.15 K, x1 = 0.3	2.99	4.43
313.15 K, x1 = 0.5	3.31	51.34
323.15 K, x1 = 0.5	3.88	40.64
333.15 K, x1 = 0.9	–	750
343.15 K, x1 = 0.5	–	36.74
343.15 K, x1 = 0.9	–	223
353.15 K, x1 = 0.1	–	1.39
353.15 K, x1 = 0.3	–	2.03

CCn1cc[nH+]c1.O=S(=O)([N-]S(=O)(=O)C(F)(F)F)C(F)(F)F + O
Settings	electrical conductivity [S/m]	viscosity [mPa·s]
297.55 K, 101 kPa, x1 = 0.5	–	15.8
297.55 K, 101 kPa, x1 = 0.889	–	44.9
303.15 K, 100 kPa, x1 = 0.366	1.77	–
303.15 K, 100 kPa, x1 = 0.403	1.6	–
303.15 K, 100 kPa, x1 = 0.427	1.53	–
303.15 K, 100 kPa, x1 = 0.455	1.44	–
303.15 K, 100 kPa, x1 = 0.491	1.35	–
303.15 K, 100 kPa, x1 = 0.519	1.24	–
303.15 K, 100 kPa, x1 = 0.554	1.15	–
303.15 K, 100 kPa, x1 = 0.592	1.05	–
303.15 K, 100 kPa, x1 = 0.634	0.948	–
303.15 K, 100 kPa, x1 = 0.684	0.845	–
303.15 K, 100 kPa, x1 = 0.712	0.785	–
303.15 K, 100 kPa, x1 = 0.743	0.729	–
303.15 K, 100 kPa, x1 = 0.776	0.672	–
303.15 K, 100 kPa, x1 = 0.811	0.619	–
303.15 K, 100 kPa, x1 = 0.851	0.57	–
303.15 K, 100 kPa, x1 = 0.896	0.516	–
303.15 K, 100 kPa, x1 = 0.943	0.464	–
303.15 K, 100 kPa, x2 = 0.003	0.424	–

— the CheMixHub ionic liquid set
